Experiments:
Assay type in all cases: functional
[1] = test system: Nilaparvata lugens; test: In vivo insecticidal activity against fifth-instar larval stage of Nilaparvata lugens (brown planthopper) in second semester rice seedlings assessed as insect mortality at 100 mg/L treated for 5 secs before larval infestation measured after 72 hr
[2] = test system: Nilaparvata lugens; test: In vivo insecticidal activity against fifth-instar larval stage of Nilaparvata lugens (brown planthopper) in second semester rice seedlings assessed as insect mortality at 500 mg/L treated for 5 secs before larval infestation measured after 72 hr
[3] = test system: Nilaparvata lugens; test: In vivo insecticidal activity against fifth-instar larval stage of Nilaparvata lugens (brown planthopper) in second semester rice seedlings assessed as insect mortality at 10 mg/L treated for 5 secs before larval infestation measured after 72 hr

For `CCOC(=O)CN1CC([N+](=O)[O-])=C(N(CC)Cc2ccc(Cl)nc2)N(C)C1`, the mortality at 100 µg/mL [1] was 100%, the mortality at 500 µg/mL [2] was 100% and the mortality at 10 µg/mL [3] was ≥ 90%.

For `CCN(Cc1ccc(Cl)nc1)C1=C([N+](=O)[O-])CN(Cc2ccc(Cl)nc2)CN1C`, the mortality at 100 µg/mL [1] was 100%, the mortality at 500 µg/mL [2] was 100% and the mortality at 10 µg/mL [3] was ≥ 80%.

`CCN(Cc1ccc(Cl)nc1)C1=C([N+](=O)[O-])CN(CCc2ccccc2)CN1C` was tested, and the mortality at 100 µg/mL [1] was 100%, the mortality at 500 µg/mL [2] was 100% and the mortality at 10 µg/mL [3] was ≥ 80%.

`CCN(Cc1ccc(Cl)nc1)C1=C([N+](=O)[O-])CN(C2CCCCC2)CN1C` was tested, and the mortality at 100 µg/mL [1] was ≥ 80%, the mortality at 500 µg/mL [2] was ≥ 90% and the mortality at 10 µg/mL [3] was ≥ 60%.

For `CCN(Cc1ccc(Cl)nc1)C1=C([N+](=O)[O-])CN(c2ccccc2)CN1C`, the mortality at 100 µg/mL [1] was ≥ 90%, the mortality at 500 µg/mL [2] was 100% and the mortality at 10 µg/mL [3] was ≥ 70%.

For `CCN(Cc1ccc(Cl)nc1)C1=C([N+](=O)[O-])CN(c2ccc(F)cc2)CN1C`, the mortality at 100 µg/mL [1] was 100%, the mortality at 500 µg/mL [2] was 100% and the mortality at 10 µg/mL [3] was ≥ 80%.

In the case of `CCN(Cc1ccc(Cl)nc1)C1=C([N+](=O)[O-])CN(c2ccccc2OC)CN1C`, the mortality at 100 µg/mL [1] is reported as 100%, the mortality at 500 µg/mL [2] is reported as 100% and the mortality at 10 µg/mL [3] is reported as ≥ 60%.

With `CCN(Cc1ccc(Cl)nc1)C1=C([N+](=O)[O-])CN(Cc2ccccc2)CN1C` the mortality at 100 µg/mL [1] was 100%, the mortality at 500 µg/mL [2] was 100% and the mortality at 10 µg/mL [3] was ≥ 90%.

`CCN(Cc1ccc(Cl)nc1)C1=C([N+](=O)[O-])CN(Cc2ccc(C)cc2)CN1C` was tested, and the mortality at 100 µg/mL [1] was ≥ 70%, the mortality at 500 µg/mL [2] was 100% and the mortality at 10 µg/mL [3] was ≥ 50%.

For `CCN(Cc1ccc(Cl)nc1)C1=C([N+](=O)[O-])CN(Cc2ccc(OC)cc2)CN1C`, the mortality at 100 µg/mL [1] was ≥ 50% and the mortality at 500 µg/mL [2] was ≥ 90%.

`CCN(Cc1ccc(Cl)nc1)C1=C([N+](=O)[O-])CN(Cc2ccccn2)CN1C` was tested, and the mortality at 100 µg/mL [1] was ≥ 80%, the mortality at 500 µg/mL [2] was 100% and the mortality at 10 µg/mL [3] was ≥ 70%.

`CCOC(=O)C(CC(C)C)N1CC([N+](=O)[O-])=C(N(CC)Cc2ccc(Cl)nc2)N(C)C1` (racemic) was tested, and the mortality at 100 µg/mL [1] was ≥ 50%, the mortality at 500 µg/mL [2] was ≥ 70% and the mortality at 10 µg/mL [3] was < 50%.

In the case of `CCOC(=O)C(Cc1ccccc1)N1CC([N+](=O)[O-])=C(N(CC)Cc2ccc(Cl)nc2)N(C)C1` (racemic), the mortality at 100 µg/mL [1] is reported as ≥ 70%, the mortality at 500 µg/mL [2] is reported as ≥ 80% and the mortality at 10 µg/mL [3] is reported as ≥ 60%.

In the case of `CCN(Cc1ccc(Cl)nc1)C1=C([N+](=O)[O-])CN(C(C)c2ccc(C)cc2)CN1C` (racemic), the mortality at 100 µg/mL [1] is reported as ≥ 80%, the mortality at 500 µg/mL [2] is reported as ≥ 90% and the mortality at 10 µg/mL [3] is reported as ≥ 70%.

`CCN(Cc1ccc(Cl)nc1)C1=C([N+](=O)[O-])CN(C(C)c2ccccc2)CN1C` (single isomer, unassigned; (+)) was tested, and the mortality at 100 µg/mL [1] was 100%, the mortality at 500 µg/mL [2] was 100% and the mortality at 10 µg/mL [3] was ≥ 80%.

Work on `CCN(Cc1ccc(Cl)nc1)/C(=C/[N+](=O)[O-])NC` [NITENPYRAM] yielded a mortality at 100 µg/mL [1] of 100%, a mortality at 500 µg/mL [2] of 100% and a mortality at 10 µg/mL [3] of 100%.
